Drawing on ChEMBL document CHEMBL1122254, “Sulfonyliminoimidazolidines. A new class of oral hypoglycemic agents. 1. 1-[[p-[2-(acylamino)ethyl]phenyl]sulfonyl]-2-iminoimidazolidines” (1983), this text covers ED20 and ED50 for 21 compounds.

What all share (assay type): functional
Assay [1] has as its system Rattus norvegicus. Kind of assay: Compound evaluated for hypoglycemic activity by lowering blood glucose in streptozotocin-diabetic rats by 20% after oral administration; Highest dose tested; Inactive(less than 10% blood sugar decrease).
Assay [2] relates to Rattus norvegicus. Kind of assay: Hypoglycemic activity by lowering blood glucose in normal rats by 20% after oral administration.
In assay [3] the test system is Rattus norvegicus. The assay can be described thus: Compound evaluated for hypoglycemic activity by lowering blood glucose in normal rats by 20% after oral administration; inactive (less than 10% blood sugar decrease).
Assay [4] has as its system Rattus norvegicus. Kind of assay: Compound evaluated for hypoglycemic activity by lowering blood glucose in streptozotocin-diabetic rats by 20% after oral administration.
The test system of assay [5] is Rattus norvegicus. Kind of assay: Compound evaluated for hypoglycemic activity by lowering blood glucose in normal rats by 50% after oral administration; inactive(less than 10% blood sugar decrease).
Assay [6] relates to Rattus norvegicus. Kind of assay: Compound evaluated for hypoglycemic activity by lowering blood glucose in normal rats by 20% after oral administration; highest dose tested;inactive(less than 10% blood sugar decrease).
The test system of assay [7] is Rattus norvegicus. Kind of assay: Hypoglycemic activity by lowering blood glucose in normal rats by 50% after oral administration.
In assay [8] the test system is Rattus norvegicus. Kind of assay: Compound evaluated for hypoglycemic activity by lowering blood glucose in streptozotocin-diabetic rats by 20% after oral administration; Highest dose tested.
Assay [9] has as its system Rattus norvegicus. The assay can be described thus: Compound evaluated for hypoglycemic activity by lowering blood glucose in normal rats by 50% after oral administration.
In assay [10] the test system is Rattus norvegicus. The assay can be described thus: Compound evaluated for hypoglycemic activity by lowering blood glucose in normal rats by 20% after oral administration.
The subject of assay [11] is Rattus norvegicus. The assay can be described thus: Compound evaluated for hypoglycemic activity by lowering blood glucose in streptozotocin-diabetic rats by 20% after oral administration (highest dose tested).
In assay [12] the test system is Rattus norvegicus. Kind of assay: Compound evaluated for hypoglycemic activity by lowering blood glucose in normal rats by 50% after oral administration (highest dose tested).
Assay [13] has as its system Rattus norvegicus. The assay can be described thus: Compound evaluated for hypoglycemic activity by lowering blood glucose in streptozotocin-diabetic rats by 20% after oral administration; Inactive(less than 10% blood sugar decrease).
Assay [14] has as its system Rattus norvegicus. Kind of assay: Compound evaluated for hypoglycemic activity by lowering blood glucose in normal rats by 20% after oral administration; Inactive (less than 10% blood sugar decrease).
In assay [15] the test system is Rattus norvegicus. Kind of assay: Compound evaluated for hypoglycemic activity by lowering blood glucose in normal rats by 20% after oral administration (highest dose tested).

With `N=C1N(C2CCCCC2)CCN1S(=O)(=O)c1ccc(CCNC(N)=O)cc1`, the values for the ED20 in assay [1] and in assay [2] were > 0.76 mmol/kg and 0.39 mmol/kg, respectively.

As for `Cc1ncsc1C(=O)NCCc1ccc(S(=O)(=O)N2CCN(C3CCCCC3)C2=N)cc1`, in assay [3], the ED20 was > 0.22 mmol/kg.

For the compound `N=C(N)NC(=N)NCCc1ccccc1` [PHENFORMIN], the results for the ED20 in assay [4] and in assay [6] were 0.16 mmol/kg and > 1 mmol/kg, respectively. Moreover, in assay [5], the ED50 is > 1000 µmol/kg.

In turn, `CN(C)C(C(=O)NCCc1ccc(S(=O)(=O)N2CCN(C3CCCCC3)C2=N)cc1)c1ccccc1` (configuration not stated) registered an ED50 in assay [7] of 170 µmol/kg. Further, the values for the ED20 in assay [2] and in assay [8] were 0.037 mmol/kg and > 0.55 mmol/kg, respectively.

Consider `CCC[S+]([O-])CC(=O)NCCc1ccc(S(=O)(=O)N2CCN(C3CCCCC3)C2=N)cc1` (configuration not stated), for which the ED20 is > 0.62 mmol/kg in [1] and 0.071 mmol/kg in [2].

With `N=C1N(C2CCCCC2)CCN1S(=O)(=O)c1ccc(CCNC(=O)c2ccccc2)cc1`, the 50% effective dose (ED50) in [9] was determined as 200 µmol/kg. This compound also registered an ED20 in [10] of 0.021 mmol/kg.

In assay [7], `CCS(=O)(=O)CC(=O)NCCc1ccc(S(=O)(=O)N2CCN(C3CCCCC3)C2=N)cc1` returned an ED50 of 530 µmol/kg. Moreover, the results for the ED20 in assay [2] and in assay [4] were 0.11 mmol/kg and 0.83 mmol/kg, respectively.

For the compound `N=C1N(C2CCCCC2)CCN1S(=O)(=O)c1ccc(CCNC(=O)c2cnccn2)cc1`, in assay [7], the ED50 stood at 480 µmol/kg. Besides, the ED20 in assay [2] was 0.12 mmol/kg; in assay [11], > 0.22 mmol/kg.

In turn, `CC[S+]([O-])CCC(=O)NCCc1ccc(S(=O)(=O)N2CCN(C3CCCCC3)C2=N)cc1` (configuration not stated) showed a median effective dose (ED50) in assay [7] of 200 µmol/kg. Besides, the figures for the ED20 in assay [2] and in [8] were 0.031 mmol/kg and > 0.62 mmol/kg, respectively.

With `N=C1N(C2CCCCC2)CCN1S(=O)(=O)c1ccc(CCNC(=O)c2cncnc2)cc1`, the ED20 in assay [2] is 0.2 mmol/kg; in [11] it was > 0.59 mmol/kg. In assay [12], the median effective dose (ED50) was > 590 µmol/kg.

`N=C1N(C2CCCCC2)CCN1S(=O)(=O)c1ccc(CCNC(=O)C(N)c2ccccc2)cc1` (configuration not stated) showed an ED50 in [7] of 76 µmol/kg. For the same compound, the ED20 is 0.029 mmol/kg in assay [2] and > 0.18 mmol/kg in assay [13].

Turning to `N=C1N(C2CCCCC2)CCN1S(=O)(=O)c1ccc(CCNC(=O)c2cccnc2)cc1`, the ED50 in assay [7] stood at 160 µmol/kg. Besides, the ED20 in assay [2] was 0.034 mmol/kg; in assay [11] it was > 0.22 mmol/kg.

For `CCCC(=O)NCCc1ccc(S(=O)(=O)N2CCN(C3CCCCC3)C2=N)cc1`, in assay [7], the 50% effect level (ED50) was put at a dose of 83 µmol/kg. Also, the ED20 in assay [2] was determined as 0.024 mmol/kg; in [4], 0.52 mmol/kg.

Take `CCCCNC(=O)NS(=O)(=O)c1ccc(C)cc1` [TOLBUTAMIDE]: the values for the ED20 in assay [13] and in assay [10] were > 1 mmol/kg and 0.056 mmol/kg, respectively. Further, the 50% effect level in assay [9] (ED50) was put at a dose of 300 µmol/kg.

In the case of `Cc1cnc(C(=O)NCCc2ccc(S(=O)(=O)N3CCN(C4CCCCC4)C3=N)cc2)cn1`, the ED50 in assay [7] amounted to 100 µmol/kg. In addition, the ED20 in [2] is 0.01 mmol/kg; in assay [11], > 0.61 mmol/kg.

In the case of `C[S+]([O-])CC(=O)NCCc1ccc(S(=O)(=O)N2CCN(C3CCCCC3)C2=N)cc1` (configuration not stated), the ED20 is > 0.66 mmol/kg in [1] and 0.12 mmol/kg in assay [2].

Take `COCC(=O)NCCc1ccc(S(=O)(=O)N2CCN(C3CCCCC3)C2=N)cc1`: in [14], the ED20 was > 0.92 mmol/kg.

As for `COc1ccc(Cl)cc1C(=O)NCCc1ccc(S(=O)(=O)NC(=O)NC2CCCCC2)cc1` [GLYBURIDE], it took a dose of 20 µmol/kg to reach the 50% effect level in [7] (ED50). In addition, the ED20 was 0.004 mmol/kg in assay [2] and > 0.5 mmol/kg in assay [13].

For `N=C1N(C2CCCCC2)CCN1S(=O)(=O)c1ccc(CCNC(=O)c2ccccn2)cc1`, the ED20 in [15] is > 0.83 mmol/kg.

In [7], `COc1cccc(C(=O)NCCc2ccc(S(=O)(=O)N3CCN(C4CCCCC4)C3=N)cc2)c1` gave an ED50 of 380 µmol/kg. Besides, the ED20 was determined as 0.062 mmol/kg in assay [2] and 0.31 mmol/kg in assay [4].

On to `N=C1N(C2CCCCC2)CCN1S(=O)(=O)c1ccc(CCNC(=O)c2ccc[n+]([O-])c2)cc1`, for which the figures for the ED20 in assay [13] and in [10] were > 0.64 mmol/kg and 0.042 mmol/kg, respectively.
